Tests used:
Details in all cases: exposure time 48 h
[1] = system: Caenorhabditis elegans N2; experiment: mean nematode size ln(EXT) after 48 h, plate-adjusted (DMSO control set to 6) (ln(EXT), control-adjusted); higher = larger nematodes / less growth inhibition
Summary of the method: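 In K-medium with killed OP50, 1% DMSO and 0.5–200 µM chemical, synchronised N2 L1 larvae of C. elegans (50 per well) grew for 48 h at 20°C. Extinction was read for every worm on the Biosort, with debris removed by a growth model. Natural-log values averaged per well gave mean size, which was corrected per plate by subtracting the vehicle control mean and adding 6.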

[2] = system: Caenorhabditis elegans N2; experiment: AC50 for larval growth inhibition (Hill fit); higher = less potent
Summary of the method: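 C. elegans N2 L1 larvae, synchronised and plated at 50 per well in 96-well plates, were exposed for 48 h at 20°C to 0.5–200 µM chemical in K-medium with killed OP50 and 1% DMSO. Log-transformed extinction from a COPAS Biosort served as worm size, averaged per well. Wells containing at least 10 worms entered the fit. A constrained Hill fit by weighted genetic-algorithm regression yielded the AC50, censored when out of range.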

[3] = system: Caenorhabditis elegans N2; experiment: lowest effective concentration for larval growth inhibition (size below effect threshold); higher = less potent
Summary of the method: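 Each well of a 96-well plate received 50 C. elegans N2 L1 larvae, which grew for 48 h at 20°C in K-medium containing killed bacteria, 1% DMSO and the chemical at 0.5, 1, 5, 10, 50, 100 or 200 µM. A Biosort recorded the extinction of every worm as its size, and these readings were log-transformed and averaged per well. The lowest effective concentration is defined as the first dose at which the plate-adjusted mean size falls below the threshold and stays below it at all higher doses; that threshold is 5.665.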

Compound | mean nematode size ln(EXT) (ln) ([1]; 0.5 µM) | mean nematode size ln(EXT) (ln) ([1]; 1 µM) | mean nematode size ln(EXT) (ln) ([1]; 5 µM) | mean nematode size ln(EXT) (ln) ([1]; 10 µM) | mean nematode size ln(EXT) (ln) ([1]; 50 µM) | mean nematode size ln(EXT) (ln) ([1]; 100 µM) | mean nematode size ln(EXT) (ln) ([1]; 200 µM) | AC50 for larval growth inhibition [2] [µM] | lowest effective concentration [3] [µM]
CC(C)OC(=O)C(C)(C)Oc1ccc(C(=O)c2ccc(Cl)cc2)cc1 [Fenofibrate] | 5.83 | 5.81 | 5.75 | 5.61 | 5.19 | 4.62 | 4.22 | 121 | 10
CCOc1ccc(C(C)(C)COCc2cccc(Oc3ccccc3)c2)cc1 [Etofenprox] | 5.87 | 5.88 | 5.91 | 5.71 | 5.81 | 5.39 | 5.47 | 52.2 | 100
CC(Oc1ccc(Cl)cc1Cl)C(=O)O (configuration not stated) [Dichlorprop] | 5.91 | 5.93 | 5.86 | 6.06 | 6.04 | 5.88 | 5.44 | 106 | 200
CCOC1Oc2ccc(OS(C)(=O)=O)cc2C1(C)C (configuration not stated) [Ethofumesate] | 6.01 | 6.03 | 6.14 | 6.03 | 6.14 | 6.11 | 5.44 | 198 | 200
ClC1=C(Cl)C2(Cl)C3C4CC(C5OC45)C3C1(Cl)C2(Cl)Cl (configuration not stated) [Endrin] | 5.93 | 5.85 | 4.99 | 4.95 | 3.81 | 3.9 | 3.75 | 8.83 | 5
ClC1=C(Cl)C2(Cl)C3C(Cl)C=CC3C1(Cl)C2(Cl)Cl (configuration not stated) [Heptachlor] | 5.7 | 5.98 | 5.24 | 4.13 | 4.03 | 3.97 | 3.44 | 6.11 | 5
CC(C)Oc1cccc(NC(=O)c2ccccc2C(F)(F)F)c1 [Flutolanil] | 5.94 | 5.98 | 6.08 | 6.01 | 5.5 | 6.3 | 5.43 | 192 | 200
CCCOc1nn(C(=O)NS(=O)(=O)c2ccccc2C(=O)OC)c(=O)n1C [Propoxycarbazone-sodium] | 5.79 | 5.97 | 6.22 | 6.16 | 5.99 | 5.96 | 5.38 | > 200 | 200
CCCCC(C#N)(Cn1cncn1)c1ccc(Cl)cc1 (configuration not stated) [Myclobutanil] | 5.83 | 5.77 | 5.8 | 5.86 | 5.68 | 5.55 | 4.8 | > 200 | 100
c1ccc(-c2ccccc2)cc1 [Biphenyl] | 5.85 | 5.87 | 5.9 | 5.96 | 5.92 | 5.74 | 3.88 | 164 | 200
CC(C)(C)c1ccccc1O [2-tert-Butylphenol] | 5.96 | 5.94 | 5.97 | 5.92 | 5.81 | 5.81 | 4.94 | > 200 | 200
O=S1OCC2C(CO1)C1(Cl)C(Cl)=C(Cl)C2(Cl)C1(Cl)Cl (configuration not stated) [Endosulfan] | 5.74 | 5.72 | 5.08 | 3.84 | 3.51 | 3.24 | 3.47 | 6.12 | 5
O=c1[nH]sc2ccccc12 [1,2-Benzisothiazolin-3-one] | 5.72 | 5.71 | 5.73 | 5.74 | 5.69 | 5.5 | 5.48 | > 200 | 100
S=C([S-])NCCNC(=S)[S-].[Mn+2] [Maneb] | 5.91 | 5.98 | 6.05 | 5.98 | 5.9 | 5.83 | 5.52 | > 200 | 200
CC(C)(C)c1ccc(CSc2cnn(C(C)(C)C)c(=O)c2Cl)cc1 [Pyridaben] | 4.73 | 4.44 | 4.31 | 4.22 | 4.14 | 3.92 | 3.87 | < 0.5 | ≤ 0.5
C=CCCCCCCCCC(=O)O [10-Undecenoic acid] | 5.77 | 6 | 5.9 | 5.88 | 5.76 | 5.8 | 5.62 | > 200 | 200
CC1(C)C(C=C(Cl)Cl)C1C(=O)OC(C#N)c1cccc(Oc2ccccc2)c1 (configuration not stated) [Cypermethrin] | 6.09 | 6.11 | 6.12 | 6.03 | 5.88 | 5.71 | 5.17 | > 200 | 200
N#CC(CCc1ccc(Cl)cc1)(Cn1cncn1)c1ccccc1 (configuration not stated) [Fenbuconazole] | 6.18 | 6.1 | 6.07 | 5.65 | 5.13 | 5.27 | 4.39 | 177 | 10
COc1nn(CSP(=S)(OC)OC)c(=O)s1 [Methidathion] | 5.74 | 5.62 | 5.48 | 5.52 | 5.57 | 5.38 | 4.52 | > 200 | 1

Compound | mean nematode size ln(EXT) (ln) ([1]; 0.5 µM) | mean nematode size ln(EXT) (ln) ([1]; 1 µM) | mean nematode size ln(EXT) (ln) ([1]; 5 µM) | mean nematode size ln(EXT) (ln) ([1]; 10 µM) | mean nematode size ln(EXT) (ln) ([1]; 50 µM) | mean nematode size ln(EXT) (ln) ([1]; 100 µM) | mean nematode size ln(EXT) (ln) ([1]; 200 µM) | AC50 for larval growth inhibition [2] [µM] | lowest effective concentration [3] [µM]
CCCCOC(=O)c1ccccc1 [Butyl benzoate] | 6 | 5.94 | 5.85 | 5.83 | 6 | 5.76 | 5.53 | 100 | 200
CCOP(=S)(OCC)Oc1cc(C)nc(C(C)C)n1 [Diazinon] | 5.98 | 5.94 | 5.84 | 5.86 | 5.33 | 4.12 | 3.6 | 70.9 | 50
C1=Cc2cccc3cccc1c23 [Acenaphthylene] | 5.93 | 5.96 | 5.94 | 5.98 | 5.92 | 5.83 | 5.37 | > 200 | 200
CCCCCCCCOC(=O)CCCCCCCCC(=O)OCCCCCCCC [Sebacic acid di-n-octyl ester] | 5.75 | 5.77 | 5.82 | 6.22 | 5.69 | 5.67 | 5.58 | 39.2 | 200
CCCCC=O [Pentanal] | 5.98 | 5.93 | 5.9 | 6 | 6.05 | 6.02 | 5.56 | 185 | 200
CCCCCCCCCCCC(=O)OC [Methyl laurate] | 5.77 | 5.99 | 5.92 | 5.94 | 5.74 | 5.82 | 4.96 | > 200 | 200
c1ccc2c(c1)oc1ccccc12 [Dibenzofuran] | 5.88 | 5.9 | 5.93 | 5.87 | 5.61 | 5.1 | 3.65 | 126 | 50
CC(C)c1cccc(C(C)C)c1N1C(=O)c2ccc(O)cc2C1=O [5HPP-33] | 5.78 | 5.75 | 5.75 | 5.76 | 5.62 | 4.88 | 4.78 | 58.6 | 50
C#CCOC(=O)[C@@H](C)Oc1ccc(Oc2ncc(Cl)cc2F)cc1 [Clodinafop-propargyl] | 5.98 | 5.9 | 6.05 | 5.94 | 6.15 | 5.84 | 5.14 | 106 | 200
COc1cccc(-c2ccc(/C=C\CN3CCCCCC3)cc2Cl)c1 | 5.88 | 5.69 | 5.61 | 5.5 | 4.98 | 4.39 | – | 90.6 | 5
Cc1nc(-c2ccc3c(c2)CCN(CCC2CCC(NC(=O)/C=C/c4ccc(F)cc4)CC2)CC3)no1 (configuration not stated) | 5.87 | 5.83 | 5.82 | 5.86 | 5.74 | 5.6 | 5.59 | > 200 | 100
CO/N=C(/C1=NOCCO1)c1ccccc1Oc1ncnc(Oc2ccccc2Cl)c1F [Fluoxastrobin] | 5.86 | 5.94 | 6.05 | 6.07 | 5.65 | 5.6 | 5.12 | > 200 | 50
CCCCOC(=O)CCCCC(=O)OCCCC [Dibutyl hexanedioate] | 5.86 | 5.83 | 5.8 | 5.76 | 5.27 | 3.38 | 3.38 | 58.5 | 50
O=S(=O)(O)C(F)(F)C(F)(F)C(F)(F)C(F)(F)C(F)(F)C(F)(F)C(F)(F)C(F)(F)F [Perfluorooctane sulfonic acid] | 5.78 | 5.91 | 5.28 | 5.06 | 4.32 | 4.28 | 3.33 | 17.4 | 5
Nc1cc(Cl)cc(C(=O)O)c1Cl [Chloramben] | 5.87 | 5.9 | 5.88 | 5.9 | 5.46 | 5.58 | 5.3 | > 200 | 50
C=CC1(C)OC(=O)N(c2cc(Cl)cc(Cl)c2)C1=O (configuration not stated) [Vinclozolin] | 5.76 | 5.01 | 3.56 | 3.46 | 3.32 | 3.11 | 3.61 | 1.18 | 1
CCCCCCCCOC(=O)c1ccc(C(=O)OCCCCCCCC)c(C(=O)OCCCCCCCC)c1 [Tri (n-octyl) Trimellitate] | 5.86 | 5.93 | 5.95 | 5.85 | 5.91 | 5.92 | 5.64 | > 200 | 200
Oc1ccc(C(c2ccc(O)cc2)C(Cl)(Cl)Cl)cc1 [2,2-Bis(4-hydroxyphenyl)-1,1,1-trichloroethane (HPTE)] | 6.16 | 6.15 | 6.1 | 6.01 | 5.25 | 4.61 | 4.12 | 66.9 | 50

Reference: the supplement of paper PMC4858399
